Experimental data as given in patent US20240124504A1, “AROMATIC HETEROCYCLIC COMPOUND, AND PHARMACEUTICAL COMPOSITION AND APPLICATION THEREOF” (GT APEIRON THERAPEUTICS LIMITED, priority 2020, published 2024).

How the values were obtained:
[1] = biological target: CDK7/cyclinH/MAT1 complex (Homo sapiens, UniProt P50613); experiment: In-vitro enzymatic inhibitory activity testing, CDK7 inhibition assay (Caliper EZ Reader II); assay type: biochemical; conditions: CDK7/cyclinH/MAT1 6 nM, 180 min at 27° C.
Experimental: (§1) CDK12/CyclinK was diluted in an assay buffer (80 mM MES PH 6.5, 0.01% Tween 20, 50 ug/mL BSA, 10 mM MgCl2) to afford a corresponding enzyme solution with the 2.4 concentration. A compound was dissolved in dimethyl sulfoxide (DMSO) at a concentration of 10 mM. […] 2 ul of a test compound solution was mixed with 5 ul of the enzyme solution; after incubation for 10 min, 5 ul of the polypeptide substrate and ATP mixed solution was added; incubation was carried out for 180 min at 27° C.; and then, the reaction was terminated by adding 4 uL of EDTA with a concentration of 120 mM to each sample. […] A CDK9/cyclinT1 complex (8 nM) and a “5-FAM-CDK9tide” peptide substrate (2 IM, synthetic fluorophore-labeled peptide with the following sequence: 5-FAM-GSRTPMY-NH2, wherein 5-FAM was as defined above and NH2 represented C-terminal amide) were used for a CDK9 inhibition assay. […] A CDK2/cyclinE1 complex (0.5 nM) and “5-FAM-CDK7tide” (2 μM) as defined above were used for CDK2 inhibition assay.
(§2) A reaction mixture was analyzed on Caliper EZ Reader II by electrophoretic separation of a fluorogenic substrate and a phosphorylated product. Data were calculated by using GraphPad Prism version 6.0, and IC50 values were adjusted and obtained by using a nonlinear regression model of a dose response curve.

CDK2/cyclinE1 complex = CDK2/cyclinE1 complex (Homo sapiens, UniProt P24941); experiment: In-vitro enzymatic inhibitory activity testing, CDK2 inhibition assay (Caliper EZ Reader II); assay type: biochemical; conditions: CDK2/cyclinE1 0.5 nM, 180 min at 27° C.
Experimental: CDK12/CyclinK was diluted in an assay buffer (80 mM MES PH 6.5, 0.01% Tween 20, 50 ug/mL BSA, 10 mM MgCl2) to afford a corresponding enzyme solution with the 2.4 concentration. […] A CDK9/cyclinT1 complex (8 nM) and a “5-FAM-CDK9tide” peptide substrate (2 IM, synthetic fluorophore-labeled peptide with the following sequence: 5-FAM-GSRTPMY-NH2, wherein 5-FAM was as defined above and NH2 represented C-terminal amide) were used for a CDK9 inhibition assay. […] A CDK2/cyclinE1 complex (0.5 nM) and “5-FAM-CDK7tide” (2 μM) as defined above were used for CDK2 inhibition assay.
as §2

CDK9/cyclinT1 complex = CDK9/cyclinT1 complex (Homo sapiens, UniProt P50750); experiment: In-vitro enzymatic inhibitory activity testing, CDK9 inhibition assay (Caliper EZ Reader II); assay type: biochemical; conditions: CDK9/cyclinT1 8 nM, 180 min at 27° C.
Experimental: as §1, §2

[2] = biological target: T1, CDK12 (aa686-1082)/cyclinK complex (Homo sapiens, UniProt Q9NYV4); experiment: In-vitro enzymatic inhibitory activity testing, CDK12 inhibition assay (Caliper EZ Reader II); assay type: biochemical; conditions: CDK12/cyclinK 50 nM, 180 min at 27° C.; read-out: CDK12 IC50
T1 construct: A CDK12 (aa686-1082)/cyclinK complex (50 nM)
Experimental: An assay was carried out in a U-bottom 384-well plate (coming, 4512#), and the reaction temperature was 27° C. CDK7/CyclinH was diluted in an assay buffer (20 mM MES PH 6.75, 0.01% Tween 20, 50 ug/mL BSA, 6 mM MgCl2) to afford a corresponding enzyme solution with the 2.4× concentration. CDK2/CyclinE1 was diluted in an assay buffer (20 mM MES PH 6.75, 0.01% Tween 20, 50 ug/mL BSA, 6 mM MgCl2) to afford a corresponding enzyme solution with the 2.4× concentration. CDK9/CyclinT1 was diluted in an assay buffer (20 mM MES PH 6.75, 0.01% Tween 20, 50 ug/mL BSA, 10 mM MgCl2) to afford a corresponding enzyme solution with the 2.4× concentration. CDK12/CyclinK was diluted in an assay buffer (80 mM MES PH 6.5, 0.01% Tween 20, 50 ug/mL BSA, 10 mM MgCl2) to afford a corresponding enzyme solution with the 2.4 concentration. A compound was dissolved in dimethyl sulfoxide (DMSO) at a concentration of 10 mM. During use, the compound was diluted with DMSO into 10 concentration gradients from 25 nM to 500 uM, and respectively diluted by 8.3 folds in the assay buffer to afford a compound solution with a 6× concentration. A polypeptide substrate and ATP were diluted in the assay buffer to afford a polypeptide substrate and ATP mixed solution with a 2.4× concentration. 2 ul of a test compound solution was mixed with 5 ul of the enzyme solution; after incubation for 10 min, 5 ul of the polypeptide substrate and ATP mixed solution was added; incubation was carried out for 180 min at 27° C.; and then, the reaction was terminated by adding 4 uL of EDTA with a concentration of 120 mM to each sample. […]. Specifically, a CDK7/cyclinH/MAT1 complex (6 nM) and a “5-FAMCD K 7 tide” peptide substrate (2 μM, synthetic fluorophore-labeled peptide with the following sequence: 5-FAM-[…], wherein “5-FAM” refers to 5-carboxyfluorescein) were used for a CDK7 inhibition assay. A CDK9/cyclinT1 complex (8 nM) and a “5-FAM-CDK9tide” peptide substrate (2 IM, synthetic fluorophore-labeled peptide with the following sequence: 5-FAM-GSRTPMY-NH2, wherein 5-FAM was as defined above and NH2 represented C-terminal amide) were used for a CDK9 inhibition assay. A CDK12 (aa686-1082)/cyclinK complex (50 nM) and “5-FAM-CDK9tide” (2 μM) as defined above were used for a CDK12 inhibition assay. A CDK2/cyclinE1 complex (0.5 nM) and “5-FAM-CDK7tide” (2 μM) as defined above were used for CDK2 inhibition assay.
as §2

[3] = test system: human breast cancer cells HCC70; experiment: Cell biological activity detection (CyQuant, 72 hours), HCC70; assay type: cell-based; conditions: Homo sapiens, HCC70, 72 h, incubation for 72 hours
Experimental: (§3) A2780 and HCC70 cells were subjected to trypsin digestion treatment, and cell suspensions were respectively transferred to 15 mL centrifuge tubes and centrifuged for 5 min at […]) rpm; supernatant was discarded, and resuspension was carried out in a fresh medium (RPMI 1640+10% FBS), after counting, cells were seeded into a 384-well plate at 2000/well (50 μL of 1640+10% FBS medium was added to the 2nd column and the 23rd column of the 384-well plate, and 50 μL of DPBS was added to the surrounding wells). Incubation was carried out overnight in an incubator (37° C., 5% CO2).
(§4) The compound was added to the well plates the next day. The compound had the highest concentration of 10 μM and was diluted at 1:4, and there were a total of 9 concentrations; and a positive compound Paclitaxel had the highest concentration of 1 μM and was diluted at 1:3, and there were a total of 9 concentrations. The DMSO content in each well was unified to 0.2%. The cell plates were centrifuged for 30 seconds at 800 rpm and placed in an incubator (37° C., 5% CO2) for incubation for 72 hours. On the fourth day, a Cyquant reagent (3×) was formulated according to kit instructions, and formulation was carried out for each 384-well plate according to the following proportions: DPBS 11.568 mL, CyQuant®? Direct nucleic acid stain 72 μL, and CyQuant® Direct background suppressor 360 μL. After uniform mixing, the reagent was placed at room temperature for further use. The cell plates were taken out and equilibrated for 30 min at room temperature, and 25 μL of the Cyquant reagent (3×) per well was dispensed into the cells of the 384-well plates by Multi-drop, and incubation was carried out for more than 60 minutes at 37° C. Acumen plate reading (Acumen setting: an excitation wavelength of 488 nm). IC50 results were analyzed by XLFIT5 from IDBS Company.

ovarian cancer A2780 = experiment: Cell biological activity detection (CyQuant, 72 hours), A2780; assay type: cell-based, human; conditions: A2780 cells, incubation for 72 hours
Experimental: as §3, §4

T1 sequence (Q9NYV4 686-1082, species assumed): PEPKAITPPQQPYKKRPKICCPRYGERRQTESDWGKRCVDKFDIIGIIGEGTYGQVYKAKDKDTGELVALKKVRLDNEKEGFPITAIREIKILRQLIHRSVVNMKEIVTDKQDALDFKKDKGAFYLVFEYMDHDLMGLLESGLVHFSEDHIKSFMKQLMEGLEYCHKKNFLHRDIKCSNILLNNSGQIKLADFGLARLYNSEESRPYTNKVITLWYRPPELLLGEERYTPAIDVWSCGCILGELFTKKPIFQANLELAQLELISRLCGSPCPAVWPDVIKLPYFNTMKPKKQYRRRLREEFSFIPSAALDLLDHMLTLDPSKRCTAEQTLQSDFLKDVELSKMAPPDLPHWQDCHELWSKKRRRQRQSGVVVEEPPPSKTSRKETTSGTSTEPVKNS
T1 sequence (O75909 whole entry partner, species assumed, the tested form may be a part): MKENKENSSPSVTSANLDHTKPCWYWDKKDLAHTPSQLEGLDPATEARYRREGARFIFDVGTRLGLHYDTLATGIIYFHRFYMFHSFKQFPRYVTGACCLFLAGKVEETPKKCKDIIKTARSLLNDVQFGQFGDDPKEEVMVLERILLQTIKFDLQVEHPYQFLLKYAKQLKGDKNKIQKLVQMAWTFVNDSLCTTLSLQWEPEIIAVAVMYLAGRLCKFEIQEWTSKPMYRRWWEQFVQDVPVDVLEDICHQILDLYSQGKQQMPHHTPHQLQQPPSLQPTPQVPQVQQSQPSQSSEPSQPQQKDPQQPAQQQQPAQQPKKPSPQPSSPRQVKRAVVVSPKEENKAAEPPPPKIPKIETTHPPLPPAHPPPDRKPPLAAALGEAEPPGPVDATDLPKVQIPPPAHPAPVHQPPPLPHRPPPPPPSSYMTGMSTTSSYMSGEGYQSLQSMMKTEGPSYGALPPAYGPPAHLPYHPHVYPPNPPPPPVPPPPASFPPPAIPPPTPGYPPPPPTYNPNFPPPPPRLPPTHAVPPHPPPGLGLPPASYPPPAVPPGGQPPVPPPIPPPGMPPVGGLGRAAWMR
CDK7/cyclinH/MAT1 complex, sequence (P50613 whole entry, species assumed): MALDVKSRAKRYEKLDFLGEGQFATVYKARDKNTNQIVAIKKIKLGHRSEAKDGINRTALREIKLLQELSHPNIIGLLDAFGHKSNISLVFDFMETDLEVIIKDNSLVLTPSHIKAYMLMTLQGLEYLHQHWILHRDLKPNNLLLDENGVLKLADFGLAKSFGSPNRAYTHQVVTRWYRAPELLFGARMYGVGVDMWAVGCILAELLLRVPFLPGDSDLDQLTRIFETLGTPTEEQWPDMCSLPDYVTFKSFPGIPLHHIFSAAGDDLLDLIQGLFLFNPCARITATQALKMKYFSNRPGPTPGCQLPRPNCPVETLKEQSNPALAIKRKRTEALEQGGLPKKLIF
CDK7/cyclinH/MAT1 complex, sequence (P51946 whole entry partner, species assumed): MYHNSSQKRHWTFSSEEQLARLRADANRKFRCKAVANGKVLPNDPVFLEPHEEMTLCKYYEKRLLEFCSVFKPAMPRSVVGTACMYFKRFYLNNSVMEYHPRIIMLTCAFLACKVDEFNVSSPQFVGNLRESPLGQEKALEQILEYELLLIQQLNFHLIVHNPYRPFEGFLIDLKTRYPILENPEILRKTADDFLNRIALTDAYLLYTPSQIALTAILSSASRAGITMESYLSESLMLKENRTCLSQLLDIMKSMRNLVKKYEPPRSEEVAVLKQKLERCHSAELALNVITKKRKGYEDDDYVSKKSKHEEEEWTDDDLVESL
CDK7/cyclinH/MAT1 complex, sequence (P51948 whole entry partner, species assumed): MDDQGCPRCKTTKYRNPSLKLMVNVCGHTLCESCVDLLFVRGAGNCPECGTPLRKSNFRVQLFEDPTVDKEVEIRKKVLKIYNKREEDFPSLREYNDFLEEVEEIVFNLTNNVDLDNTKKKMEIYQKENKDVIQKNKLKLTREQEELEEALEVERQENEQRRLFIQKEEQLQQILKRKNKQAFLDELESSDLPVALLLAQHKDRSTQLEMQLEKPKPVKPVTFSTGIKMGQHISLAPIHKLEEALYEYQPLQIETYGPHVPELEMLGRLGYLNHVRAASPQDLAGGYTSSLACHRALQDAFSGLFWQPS
CDK9/cyclinT1 complex, sequence (P50750 whole entry, species assumed): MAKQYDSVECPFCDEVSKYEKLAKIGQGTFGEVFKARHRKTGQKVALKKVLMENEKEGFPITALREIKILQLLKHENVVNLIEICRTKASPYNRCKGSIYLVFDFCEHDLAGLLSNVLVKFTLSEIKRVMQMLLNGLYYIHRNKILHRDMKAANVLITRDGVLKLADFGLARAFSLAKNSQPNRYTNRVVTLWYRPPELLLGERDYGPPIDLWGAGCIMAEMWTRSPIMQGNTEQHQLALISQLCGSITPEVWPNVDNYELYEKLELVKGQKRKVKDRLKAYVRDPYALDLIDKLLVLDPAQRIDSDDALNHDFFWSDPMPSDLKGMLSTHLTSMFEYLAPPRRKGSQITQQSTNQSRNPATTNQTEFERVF
CDK9/cyclinT1 complex, sequence (O60563 whole entry partner, species assumed): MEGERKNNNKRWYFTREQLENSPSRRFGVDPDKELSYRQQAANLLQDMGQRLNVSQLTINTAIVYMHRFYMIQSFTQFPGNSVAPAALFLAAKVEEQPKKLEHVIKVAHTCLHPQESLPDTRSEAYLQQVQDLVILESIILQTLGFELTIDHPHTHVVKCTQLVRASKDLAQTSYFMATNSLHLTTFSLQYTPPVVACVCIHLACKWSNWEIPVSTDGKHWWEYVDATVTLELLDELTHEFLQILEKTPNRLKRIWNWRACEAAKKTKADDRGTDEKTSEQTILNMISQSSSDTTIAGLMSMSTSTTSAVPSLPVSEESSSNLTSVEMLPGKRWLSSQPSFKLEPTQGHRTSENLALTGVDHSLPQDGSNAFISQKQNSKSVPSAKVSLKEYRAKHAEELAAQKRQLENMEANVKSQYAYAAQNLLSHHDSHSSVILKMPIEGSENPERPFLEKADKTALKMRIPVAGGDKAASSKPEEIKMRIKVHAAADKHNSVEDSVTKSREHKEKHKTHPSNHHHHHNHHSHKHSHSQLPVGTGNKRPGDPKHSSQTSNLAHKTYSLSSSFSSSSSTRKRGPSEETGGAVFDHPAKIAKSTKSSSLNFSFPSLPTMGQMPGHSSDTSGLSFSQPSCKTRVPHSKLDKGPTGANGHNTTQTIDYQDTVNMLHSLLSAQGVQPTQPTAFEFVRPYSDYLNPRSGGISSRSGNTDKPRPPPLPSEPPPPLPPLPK

| IC50 [1] [µM] | IC50 (CDK2/cyclinE1 complex) [µM] | IC50 (CDK9/cyclinT1 complex) [µM] | IC50 [2] [µM] | IC50 (ovarian cancer A2780; Homo sapiens, A2780, 72 h) [µM] | IC50 (ovarian cancer A2780) [µM] | Compound | IC50 [3] [µM] |
| --- | --- | --- | --- | --- | --- | --- | --- |
| < 0.02 | 5 to 50 | > 50 | > 50 | < 0.02 | – | CC(O)[C@H](C)Nc1ncc(C(F)(F)F)c(-c2c[nH]c3c(P(C)(C)=O)cccc23)n1 (mixture of isomers) [Compound 128, (3-(2-(((2S)-3-hydroxybutan-2-yl)amino)-5-(trifluoromethyl)pyrimidin-4-yl)-1H-indole-7-yl)dimethylphosphine oxide] | 0.02 to 0.2 |
| 0.02 to 0.2 | 0.2 to 5 | 5 to 50 | 0.2 to 5 | 0.2 to 5 | – | FC(F)(F)c1cnc(NC2CCCNCC2)nc1-c1c[nH]c2nc(N3CCOCC3)ccc12 (single isomer, unassigned) [Compound 48] | 0.2 to 5 |
| 0.2 to 5 | > 50 | > 50 | > 50 | – | 5 to 50 | FC(F)(F)c1cnc(NC2CCC3CNCC32)nc1-c1c[nH]c2nc(N3CCOCC3)ccc12 (single isomer, unassigned) [Compound 56] | – |
| < 0.02 | 0.2 to 5 | – | – | < 0.02 | – | CP(C)(=O)c1cccc2c(-c3nc(NC4CC(F)(F)CC4O)ncc3C(F)(F)F)c[nH]c12 (single isomer, unassigned) [Compound 191] | 0.02 to 0.2 |
| < 0.02 | 5 to 50 | 5 to 50 | 0.2 to 5 | < 0.02 | – | Cc1noc(C)c1-c1ccc2c(-c3nc(N[C@@H]4CCC45CNC5)ncc3C(F)(F)F)c[nH]c2n1 [Compound 36, (R)—N-(4-(6-(3,5-dimethylisoxazol-4-yl)-1H-pyrrolo[2,3-b]pyridin-3-yl)-5-(trifluoromethyl)pyrimidin-2-yl)-2-azaspiro[3.3]heptan-5-amine] | – |
| – | – | – | – | 0.2 to 5 | – | C[C@H]1C[C@H](Nc2ncc(C(F)(F)F)c(-c3c[nH]c4nc(N5CCOCC5)ccc34)n2)CCN1 [Compound 53, N-((2S,4R)-2-methylpiperidin-4-yl)-4-(6-morpholinyl-1H-pyrrolo[2,3-b]pyridin-3-yl)-5-(trifluoromethyl)pyrimidin-2-amine] | 0.2 to 5 |
| < 0.02 | 5 to 50 | 5 to 50 | 5 to 50 | 0.2 to 5 | – | N#Cc1ccc2c(-c3nc(N[C@@H]4CCC45CNC5)ncc3C(F)(F)F)c[nH]c2n1 [Compound 61, (R)-3-(2-((2-azaspiro[3.3]heptan-5-yl)amino)-5-(trifluoromethyl)pyrimidin-4-yl)-1H-pyrrolo[2,3-b]pyridine-6-carbonitrile] | – |
| 0.02 to 0.2 | 0.2 to 5 | > 50 | > 50 | – | – | COc1cc(P(C)(C)=O)c2[nH]cc(-c3nc(N[C@@H](C)CO)ncc3C(F)(F)F)c2c1 [Compound 104] | – |
| 0.02 to 0.2 | 0.2 to 5 | 5 to 50 | 5 to 50 | – | – | COc1ccc2c(-c3nc(N[C@@H](C)CO)ncc3C(F)(F)F)c[nH]c2c1P(C)(C)=O [Compound 106, (S)-(3-(2-((1-hydroxypropan-2-yl)amino)-5-(trifluoromethyl)pyrimidin-4-yl)-6-methoxy-1H-indole-7-yl)dimethylphosphine oxide] | – |
| 0.02 to 0.2 | 5 to 50 | > 50 | > 50 | – | – | CC1([C@@H](CO)Nc2ncc(C(F)(F)F)c(-c3c[nH]c4c(P(C)(C)=O)cccc34)n2)CC1 [Compound 112, (S)-(3-(2-((2-hydroxy-1-(1-methylcyclopropyl)ethyl)amino)-5-(trifluoromethyl)pyrimidin-4-yl)-1H-indole-7-yl)dimethylphosphine oxide] | – |
| 0.02 to 0.2 | 5 to 50 | > 50 | > 50 | – | – | CP(C)(=O)c1cccc2c(-c3nc(N[C@@H](CO)C4CCC4)ncc3C(F)(F)F)c[nH]c12 [Compound 113, (R)-(3-(2-((1-cyclobutyl-2-hydroxyethyl)amino)-5-(trifluoromethyl)pyrimidin-4-yl)-1H-indole-7-yl)dimethylphosphine oxide] | – |
| 0.2 to 5 | 0.2 to 5 | > 50 | > 50 | – | – | C[C@@H](CO)Nc1ncc(F)c(-c2c[nH]c3c(P(C)(C)=O)cccc23)n1 [Compound 157, (S)-(3-(5-fluoro-2-((1-hydroxypropan-2-yl)amino)pyrimidin-4-yl)-1H-indole-7-yl)dimethylphosphine oxide] | – |
| – | – | – | – | – | – | CC(C)(C)[C@H](CO)Nc1ncc(C(F)(F)F)c(-c2c[nH]c3c(P(C)(C)=O)cccc23)n1 [Compound 176] | < 0.02 |
| 5 to 50 | > 50 | > 50 | > 50 | – | – | C[C@@H](CO)Nc1ncc(C(N)=O)c(-c2c[nH]c3c(P(C)(C)=O)cccc23)n1 [Compound 180, (S)-4-(7-(dimethylphosphoryl)-1H-indole-3-yl)-2-((1-hydroxypropan-2-yl)amino)pyrimidine-5-carboxamide] | – |
| 5 to 50 | > 50 | > 50 | > 50 | – | – | C[C@@H](CO)Nc1nccc(-c2c[nH]c3c(P(C)(C)=O)cccc23)n1 [Compound 186] | – |
